Laboratory results reported in patent US20240156800A1, “EP300 DEGRADER AND USES THEREOF IN NEUROBLASTOMA” (DANA-FARBER CANCER INSTITUTE, INC., priority 2021, published 2024).
Entries after “also recorded” stand apart in the source; their conditions may differ.

Experiments:
[1] = test system: Kelly-Cas9 control or CRBN knockout cells; experiment: CellTiter-Glo assay of Kelly-Cas9 control or CRBN knockout cells; format: cell-based, human; conditions: range of doses, seven days
Protocol: Cells were infected with lentiviruses encoding sgRNAs or treated with compounds as described. Colony assays were performed by replating cells at 500 cells per well in 6-well dishes and grown in regular growth media for 10 d before 100% methanol fixation, 0.05% crystal violet staining, and quantitation. Experiments were completed in triplicate; data shown are the average of three independent experiments. Cell Titer-Glo® assay was performed as per the manufacturer's instructions (Promega®). Briefly, 1000 cells/well were plated into 96-well plates and treated with a range of compound dosing. Cell viability was measured at the noted time points based on luminescence by the Cell Titer-Glo® assay (Promega®) and read on an Envision 2104 (PerkinElmer®, USA) according to the manufacturer's protocol.
sgRNAs targeting individual genes were subcloned by standard methodologies within pLKO.5-EFGP. Kelly, SIMA, BE2C, and NGP cells were infected with lenticas9 followed by blasticidin selection. Stable expression of cas9 was established by western blotting of protein lysates using cas9 antibody (Cell Signaling Technology®). Following infection of pLKO.5-EGFP-sgRNA lentivirus, cells were cultured for the identified times prior to evaluation. BE2C cells were infected with pLC-zsgreen or pLC-CRBN lentiviruses and selected using 500 μg/mL hygromycin (Invitrogen™)

MYCN = experiment: Western blotting of MYCN (whole lysates and chromatin extracts); format: cell-based, human; conditions: Kelly cells, 0.5 and 1 μM, 24 h, chromatin extracts
Protocol: Cells growing in culture were lysed for whole cell lysates as described in Durbin et al. Nat. Genet. 50:1240-1246 (2018) and Wang et al. Nat. Commun. 10:5622 (2019). Nuclear lysates were prepared using the NE-PER® nuclear lysate kit (Thermo Scientific™) according to the manufacturer's protocol. Chromatin lysates were prepared with the total histone extraction kit (Epigentek). Briefly, equivalent amounts of protein were resolved by western blotting using 4-12% Bis-Tris NuPAGE™ gels (Thermo-Fisher Scientific) prior to transfer, and immunoblotting using primary antibodies to: MYCN (1:1000, Cell Signaling Technology®), H3K27ac (1:1000, Abcam), total H3 (1:1000, Cell Signaling Technology®), EP300 (1:1000, Abcam), CBP (1:500, Cell Signaling Technology®), Cas9 (1:1000, Cell Signaling Technology®), cleaved-PARP1 (1:1000, Cell Signaling Technology), cleaved Caspase-3 (1:1000, Cell Signaling Technology®), β-actin (1:1000, Cell Signaling Technology®), GATA3 (1:1000, EMD Millipore™), TFAP2β (1:1000, Cell Signaling Technology®), Vinculin (1:1000, EMD Millipore™), CRBN (1:1000, Cell Signaling Technology®), HAND2 (1:1000, Santa Cruz Biotechnology). Secondary antibodies were horseradish peroxidase (HRP)-conjugated anti-rabbit or anti-mouse (1:5000, Santa Cruz Biotechnology), incubated prior to exposure to enhanced chemiluminescence reagents (GE, Amersham). For immunoprecipitation, equal amounts of protein were diluted in buffer C as described in Mansour et al. Science 346:1373-1377 (2014) and incubated with antibodies covalently conjugated to Dynabeads™ M-270 beads (Thermo-Fisher Scientific) overnight according to the manufacturer's directions. Antibodies used included: H3K27ac, EP300 (Abcam), CBP, TFAP2β (Cell Signaling Technology®), rabbit immunoglobulin G (IgG) (Santa Cruz Biotechnology®). Immunoprecipitated protein was isolated as per the manufacturer's directions and subjected to western blotting, as described above, or mass spectrometry.

H3K27ac = H3K27ac ChIP-seq with Drosophila spike-in (ChIP-RX) in Kelly cells; format: cell-based, human; conditions: 500 nM
Protocol: ChIP-seq was performed as previously described for cell lines (Durbin et al. Nat. Genet. 50:1240-6 (2018)). The following antibodies were used for ChIP: EP300 (Abcam, ab10485), CBP (#7389, Cell Signaling Technology®), TFAP2β (#2509, Cell Signaling Technology®), ASCL1 (sc-374104, Santa Cruz Biotechnology) and H3K27ac (Abcam ab4729). For each ChIP, 10 μg of antibody was added to 3 ml of sonicated nuclear extract. Illumina® sequencing, library construction, and ChIP-seq analysis methods were performed as described in Mansour et al. Science 346, 1373-7 (2014) and Sanda et al. Cancer Cell 22:209-21 (2012). Remaining ChIP-seq and assay for transposase-accessible chromatin (ATAC)-sequencing data were extracted from previously published datasets (GSE120074, GSE94822, GSE65664) available through the GEO portal. For experiments involving analysis of quantitative changes in H3K27ac, pellets of neuroblastoma cells were externally spiked in with similarly fixed and processed S2 cells at 1:10 ratio, prior to sonication.
ChIP-RX reads from Kelly cells treated with 500 nM JQAD1 were aligned in multiple steps. Reads were aligned to the dm6 revision of the D. melanogaster reference genome with -k 1 —chunkmbs 256—best to identify spiked-in DNA. Counts of fly reads were determined by counting unique read names in the aligned read file. Remaining non-fly reads were aligned to the hg19 revision of the human reference genome with parameters -k 2 -m 2 -chunkmbs 256 -best -175. Visualization files were constructed using macs 1.4 with parameters -w -S -space=50 -nomodel -shiftsize=200 to generate wiggle files, which were subsequently normalized by the millions of fly-mapped reads in the corresponding sample.
H3K27ac ChIP-RX read coverage of stitched enhancers was quantified using bamToGFF with parameter -t TRUE and divided by the millions of mapped reads, from which read-per-million values from the corresponding input experiment was subtracted. These values were used to create fold-changes during the treatment time-course.

Kelly NB cell xenografts = experiment: Kelly NB cell subcutaneous xenografts in NSG mice; format: in vivo; conditions: 40 mg/Kg IP once or twice daily
Protocol: For tumor studies, eight-week-old female NSG™ mice (Jackson Laboratories) were subcutaneously implanted with 2.5×10^6 Kelly cells in 50% matrigel/PBS. Mice were assigned to three groups: vehicle (n=11), JQAD1 (40 mg/kg/day) (n=12) or JQAD1 (40 mg/kg, twice daily) (n=12) by IP injection. Treatment with small-molecule inhibitors was initiated once tumors engrafted and reached 100-150 mm^3. Mice were treated for 21 days and then followed for survival. Tumors were measured by calipers, and mice were weighed every three days. Animals were euthanized according to institutional guidelines when tumors reached […] in length or width, or if animals became moribund. Tumor sizes were compared at each time point by two-way ANOVA with post-hoc Tukey tests. Tumor growth curve kinetics were analyzed by both logistic regression and mixed-effects two-way ANOVA with post-hoc Tukey tests to determine whether growth kinetics differed between treatment groups.
Separately, eight animals were xenografted as described above, and treated with vehicle (n=4) or JQAD1 (n=4) at 40 mg/kg IP daily for 14 days. These animals were sacrificed at day 14, following which tumor was extracted, and divided for immunohistochemical analysis or analysis of RNA expression by RNA sequencing (RNA-seq).

C[C@H](N(Cc1ccc(F)cc1)C(=O)CN1C(=O)O[C@@]2(CCc3cc(NC(=O)CCCCCCCCCCCNc4ccc5c(c4)C(=O)N(C4CCC(=O)NC4=O)C5=O)ccc32)C1=O)C(F)(F)F (stereo partly drawn) [JQAD1, 12-((2-(2,6-dioxopiperidin-3-yl)-1,3-dioxoisoindolin-5-yl)amino)-N-((R)-3′-(2-((4-fluorobenzyl)((S)-1,1,1-trifluoropropan-2-yl)amino)-2-oxoethyl)-2′,4′-dioxo-2,3-dihydrospiro[indene-1,5′-oxazolidin]-5-yl)dodecanamide]
growth of CRBN-knockout Kelly cells [1]: resistant | growth of control-edited Kelly cells [1]: potently killed | chromatin-bound MYCN (MYCN): loss of both EP300 and chromatin-bound MYCN proteins | H3K27ac signal at 6 h versus 0 h (H3K27ac; 6 h): no consistent change in acetylation | H3K27ac signal genome-wide at 24 h (H3K27ac; 24 h): general loss of H3K27ac signal genome-wide, which was most pronounced at densely acetylated super-enhancers | global suppression of all enhancers (H3K27ac marked sites) (H3K27ac; 24 h versus untreated): approximately 2 fold | body weight (Kelly NB cell xenografts; NSG mice): body weight was maintained over 14 days of treatment | survival (Kelly NB cell xenografts; log-rank p<0.0001 versus vehicle): prolongation of survival; also recorded: prolongs survival | xenograft tumor growth (Kelly NB cell xenografts; p<0.05): suppression of xenograft tumor growth by day 3 of treatment
